Where a name gives a salt, the structure may show the parent alone.
Tests used:
[1] = target: Beta-3 adrenergic receptor (Homo sapiens, UniProt P13945); test: 3H-CGP 12177 Whole Cell Binding Assay
Excerpt: (§1) The whole cell-binding studies were undertaken in CHO cell lines stably expressing each beta-adrenoceptor subtype.

[2] = target: Beta-1 adrenergic receptor (Homo sapiens, UniProt P08588); test: 3H-CGP 12177 Whole Cell Binding Assay; settings: pH 7.4; 37 °C
Chain of Beta-1 adrenergic receptor (P08588 whole entry): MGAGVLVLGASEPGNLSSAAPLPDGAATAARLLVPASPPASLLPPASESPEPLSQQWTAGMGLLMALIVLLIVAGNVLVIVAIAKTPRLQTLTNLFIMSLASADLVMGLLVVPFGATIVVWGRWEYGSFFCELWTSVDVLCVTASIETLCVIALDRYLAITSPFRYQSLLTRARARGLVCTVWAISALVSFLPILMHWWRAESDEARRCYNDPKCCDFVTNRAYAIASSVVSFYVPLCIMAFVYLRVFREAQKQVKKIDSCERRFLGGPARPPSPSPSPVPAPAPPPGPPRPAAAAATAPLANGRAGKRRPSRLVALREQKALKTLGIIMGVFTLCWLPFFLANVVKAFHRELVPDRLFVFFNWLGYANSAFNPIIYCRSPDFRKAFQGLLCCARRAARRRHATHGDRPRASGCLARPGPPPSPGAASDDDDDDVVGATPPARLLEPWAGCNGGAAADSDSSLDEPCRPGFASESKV
Excerpt: as §1

Chain of Beta-3 adrenergic receptor (P13945 whole entry): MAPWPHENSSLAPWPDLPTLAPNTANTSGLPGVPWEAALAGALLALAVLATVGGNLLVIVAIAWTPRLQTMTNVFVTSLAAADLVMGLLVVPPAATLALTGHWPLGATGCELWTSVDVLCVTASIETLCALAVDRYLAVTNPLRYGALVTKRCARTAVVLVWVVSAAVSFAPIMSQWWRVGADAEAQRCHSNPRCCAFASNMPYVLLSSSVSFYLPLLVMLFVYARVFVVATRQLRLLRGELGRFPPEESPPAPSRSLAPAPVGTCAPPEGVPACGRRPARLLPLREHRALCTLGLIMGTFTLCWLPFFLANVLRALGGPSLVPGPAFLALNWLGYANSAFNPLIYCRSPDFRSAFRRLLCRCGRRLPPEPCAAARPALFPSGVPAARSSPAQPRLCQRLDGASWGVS

Row | SMILES | Kd [1] [nM] | Kd [2] [nM]
1 | CC(C)(C)NC[C@H](O)COc1nsnc1N1CCOCC1 (racemic) [tert-butyl(2-hydroxy-3-{[4-(morpholin-4-yl)-1,2,5-thiadiazol-3-yl]oxy}propyl)amine] | 158 | 
2 | CC(C)NCC(O)c1ccc2ccccc2c1 (stereo unspecified) [1-(naphthalen-2-yl)-2-(propan-2-ylamino)ethan-1-ol] | 1290 | 363
3 | O=C(O)COc1ccc(OCCNC[C@@H](O)COc2ccccc2)cc1 [2-[4-(2-{[(2R)-2-hydroxy-3-phenoxypropyl]amino}ethoxy)phenoxy]acetic acid] | 234 | 
4 | CC(C)(C)NCC(O)COc1cccc2[nH]c(=O)[nH]c12 (stereo unspecified) [4-[3-(tert-butylamino)-2-hydroxypropoxy]-2,3-dihydro-1H-1,3-benzodiazol-2-one hydrochloride] | 102 | 
5 | CC(C)(C)NCC(O)COc1cccc2c1C[C@H](O)[C@H](O)C2 (stereo partly specified) [Corgard] | 661 | 59
6 | CC(C)NC[C@H](O)COc1ccc(CCOCC2CC2)cc1 [[(2S)-3-{4-[2-(cyclopropylmethoxy)ethyl]phenoxy}-2-hydroxypropyl](propan-2-yl)amine] | 1070 | 
7 | OCc1cc(C(O)CNCCCCCCOCCCCc2ccccc2)ccc1O (stereo unspecified) [salmeterol xinafoate] | 1860 | 
8 | Cc1ccc(Cl)c(OCC(O)CNC(C)(C)C)c1 (stereo unspecified) [tert-butyl[3-(2-chloro-5-methylphenoxy)-2-hydroxypropyl]amine] | 91 | 3.1
